{
  "source": "patent EP3731816B1",
  "about": "“SOLID ORAL PHARMACEUTICAL COMPOSITIONS COMPRISING APIXABAN” (Sanovel Ilac Sanayi ve Ticaret A.S., priority 2017, dated 2019)",
  "origin": "cited, not measured here",
  "key": {"[1]": {"settings": "at 24 °C"}, "[2]": {"settings": "single 10 mg dose"}},
  "data": [
    {"smiles": "COc1ccc(-n2nc(C(N)=O)c3c2C(=O)N(c2ccc(N4CCCCC4=O)cc2)CC3)cc1", "note": "[Apixaban, 1-(4-methoxyphenyl)-7-oxo-6-[4-(2-oxopiperidin-1-yl)phenyl]-4,5,6,7-tetrahydro-1H-pyrazolo[3,4-c]pyridine-3-carboxamide]", "values": [
      {"measurement": "solubility in water", "setting": "[1]", "value": 0.028, "unit": "mg/mL"},
      {"measurement": "oral bioavailability", "setting": "[2]", "value": "about 50%"}
    ]}
  ]
}
